Measurements: PubChem BioAssay (NCI)
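Briefly, cells in 96-well plates were exposed to five compound concentrations for 48 h, and endpoints were estimated by linear interpolation. TGI denotes the concentration required for complete inhibition of growth.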

What was measured:
Assay in all cases: NCI-60 cell line screen, 48 h
786-0 renal = system: 786-0 renal
A498 renal = system: A498 renal
A549 NSCLC = system: A549 NSCLC
ACHN renal = system: ACHN renal
BT-549 breast = system: BT-549 breast
CAKI-1 renal = system: CAKI-1 renal
CCRF-CEM leukemia = system: CCRF-CEM leukemia
COLO 205 colon = system: COLO 205 colon
DU-145 prostate = system: DU-145 prostate
EKVX NSCLC = system: EKVX NSCLC
HCC-2998 colon = system: HCC-2998 colon
HCT-116 colon = system: HCT-116 colon
HCT-15 colon = system: HCT-15 colon
HL-60(TB) leukemia = system: HL-60(TB) leukemia
HOP-62 NSCLC = system: HOP-62 NSCLC
HT29 colon = system: HT29 colon
IGROV1 ovarian = system: IGROV1 ovarian
K-562 leukemia = system: K-562 leukemia
KM12 colon = system: KM12 colon
LOX IMVI melanoma = system: LOX IMVI melanoma
M14 melanoma = system: M14 melanoma
MALME-3M melanoma = system: MALME-3M melanoma
MCF7 breast = system: MCF7 breast
MDA-MB-435 = system: MDA-MB-435
MDA-N = system: MDA-N
MOLT-4 leukemia = system: MOLT-4 leukemia
NCI-H23 lung = system: NCI-H23 lung
NCI-H460 lung = system: NCI-H460 lung
NCI-H522 lung = system: NCI-H522 lung
NCI/ADR-RES ovarian = system: NCI/ADR-RES ovarian
OVCAR-3 ovarian = system: OVCAR-3 ovarian
OVCAR-4 ovarian = system: OVCAR-4 ovarian
OVCAR-5 ovarian = system: OVCAR-5 ovarian
OVCAR-8 ovarian = system: OVCAR-8 ovarian
PC-3 prostate = system: PC-3 prostate
RPMI-8226 leukemia = system: RPMI-8226 leukemia
SF-295 CNS = system: SF-295 CNS
SF-539 CNS = system: SF-539 CNS
SK-MEL-2 melanoma = system: SK-MEL-2 melanoma
SK-MEL-28 melanoma = system: SK-MEL-28 melanoma
SK-MEL-5 melanoma = system: SK-MEL-5 melanoma
SK-OV-3 ovarian = system: SK-OV-3 ovarian
SNB-19 CNS = system: SNB-19 CNS
SR leukemia = system: SR leukemia
SW-620 colon = system: SW-620 colon
T-47D breast = system: T-47D breast
U251 CNS = system: U251 CNS
UACC-257 melanoma = system: UACC-257 melanoma
UACC-62 melanoma = system: UACC-62 melanoma
UO-31 renal = system: UO-31 renal

O=C1/C(=C\c2ccc(Cl)cc2)N=C(c2ccccc2)N1n1c(=O)cn[nH]c1=S
TGI (786-0 renal): 39.7 µM | TGI (A498 renal): > 100 µM | TGI (A549 NSCLC): > 100 µM | TGI (ACHN renal): > 100 µM | TGI (BT-549 breast): 92.3 µM | TGI (CAKI-1 renal): > 100 µM | TGI (CCRF-CEM leukemia): 15.7 µM | TGI (COLO 205 colon): > 100 µM | TGI (DU-145 prostate): 58.3 µM | TGI (EKVX NSCLC): > 100 µM | TGI (HCC-2998 colon): > 100 µM | TGI (HCT-116 colon): > 100 µM | TGI (HCT-15 colon): 69.5 µM | TGI (HL-60(TB) leukemia): 64.6 µM | TGI (HOP-62 NSCLC): > 100 µM | TGI (HT29 colon): > 100 µM | TGI (IGROV1 ovarian): 66.1 µM | TGI (K-562 leukemia): 54.9 µM | TGI (KM12 colon): > 100 µM | TGI (LOX IMVI melanoma): 65.3 µM | TGI (M14 melanoma): > 100 µM | TGI (MALME-3M melanoma): > 100 µM | TGI (MCF7 breast): 35.4 µM | TGI (MDA-MB-435): 87 µM | TGI (MDA-N): > 100 µM | TGI (MOLT-4 leukemia): 53.3 µM | TGI (NCI-H23 lung): 43.6 µM | TGI (NCI-H460 lung): > 100 µM | TGI (NCI-H522 lung): 37.2 µM | TGI (NCI/ADR-RES ovarian): > 100 µM | TGI (OVCAR-3 ovarian): 76.2 µM | TGI (OVCAR-4 ovarian): 69 µM | TGI (OVCAR-5 ovarian): > 100 µM | TGI (OVCAR-8 ovarian): 45.8 µM | TGI (PC-3 prostate): > 100 µM | TGI (RPMI-8226 leukemia): 62.1 µM | TGI (SF-295 CNS): > 100 µM | TGI (SF-539 CNS): > 100 µM | TGI (SK-MEL-2 melanoma): > 100 µM | TGI (SK-MEL-28 melanoma): > 100 µM | TGI (SK-MEL-5 melanoma): 55.3 µM | TGI (SK-OV-3 ovarian): > 100 µM | TGI (SNB-19 CNS): > 100 µM | TGI (SR leukemia): 72.6 µM | TGI (SW-620 colon): 44.4 µM | TGI (T-47D breast): 28.6 µM | TGI (U251 CNS): 37.7 µM | TGI (UACC-257 melanoma): > 100 µM | TGI (UACC-62 melanoma): > 100 µM | TGI (UO-31 renal): > 100 µM
